Reference: patent US9701645B2 (priority 2005, dated 2017)

Assays:
reserpine treated rats = test: Locomotor activity in reserpine treated rats; format: in vivo, rat; conditions: compound 18 hours after reserpine, 3, 10 or 30 mg/kg, total counts over 1 h
Protocol: (§1) Behavioral parameters were monitored in transparent shoebox cages that measured 45×25×20 cm, with a 1-cm depth of wood chips on the cage floor and a plastic grid on top of the cage. Rectangular photocell monitors with a bank of 3 photocell beams surrounded each test cage. Ambulations (locomotor activity: total number of beam breaks in 1 hour) were recorded by computer and stored for each test session.
(§2) Animals were administered injections of dextrose, reserpine or haloperidol. Formula (i) or Formula (ii) was then administered 18 hours after reserpine at doses of 3, 10 or 30 mg/kg or 15 minutes after haloperidol at doses of 1, 3, 10 or 30 mg/kg. Animals were monitored over a 60-min period in all instances, and data are expressed as total counts over the entire 1 h test period. […] In these studies, clinically effective therapies such as dopamine replacement therapy restore locomotor activity in dopamine-depleted or dopamine antagonist treated animals. Dopamine replacement therapy also, however, produces an overshoot in locomotor activity beyond the locomotor counts observed with normal control animals (with intact dopamine systems). This is considered the activating component of dopamine replacement therapy that results in dyskinesias in Parkinson's patients.

haloperidol-treated rats = test: Locomotor activity in haloperidol treated rats; format: in vivo, rat; conditions: haloperidol treated rats, compound 15 minutes after haloperidol, 1, 3, 10 or 30 mg/kg, total counts over 1 h
Protocol: as §1, §2

mice [1] = test: Seizure-like convulsion incidence in mice; format: in vivo, mouse
Source text: One of the most obvious side-effects of potent delta agonists that rapidly penetrate the blood brain barrier is convulsive episodes reminiscent of possible seizure-like brain activity. The mouse is the chosen species for study of these effects since the mouse is the most highly convulsion-sensitive rodent species and mice present with a clear and obvious, whole body tonic-clonic convulsion. One of the earliest phases of delta agonist safety assessments is thus the determination of the convulsion threshold in mice.

[2] = test system: Parkinson's disease rodent models; test: Parkinson's disease rodent models (summary statements); format: in vivo, rat; conditions: oral
Protocol: as §1, §2
An opioid receptor agonist selective for the delta receptor. • 2. Active in Parkinson's disease rodent models. • a. Potent at improving locomotor activity of haloperidol-treated rats. • b. Potent at improving locomotor activity in reserpine treated rats. • 3. Orally active in Parkinson's disease rodent models. • a.

mu-opioid receptor = target: T1, mu-opioid receptor (Rattus norvegicus, UniProt P33535); conditions: known results of SNC80; read-out: Receptor Binding Affinity, Ki Mu; cited from earlier work
T1 construct: delta and mu receptors from rat whole brain homogenate; from tissue; host or cells: rat whole brain homogenate (membrane fractions)
T1 sequence (P33535 whole entry): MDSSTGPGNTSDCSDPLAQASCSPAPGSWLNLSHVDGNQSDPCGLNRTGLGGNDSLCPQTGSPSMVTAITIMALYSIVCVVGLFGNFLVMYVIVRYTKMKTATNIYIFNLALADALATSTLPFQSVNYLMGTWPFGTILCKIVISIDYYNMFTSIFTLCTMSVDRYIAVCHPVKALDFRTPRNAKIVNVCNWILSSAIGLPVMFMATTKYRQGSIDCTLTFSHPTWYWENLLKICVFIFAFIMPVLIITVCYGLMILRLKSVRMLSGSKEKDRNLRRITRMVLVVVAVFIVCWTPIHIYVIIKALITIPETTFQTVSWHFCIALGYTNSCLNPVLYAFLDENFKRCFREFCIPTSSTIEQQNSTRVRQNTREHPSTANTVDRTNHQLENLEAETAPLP

kappa-opioid receptor = target: T2, kappa-opioid receptor (Cavia porcellus, UniProt P41144); conditions: known results of SNC80; read-out: Receptor Binding Affinity, Ki Kappa; cited from earlier work
T2 construct: kappa receptors from guinea pig cerebellar homogenate; from tissue; host or cells: guinea pig cerebellar homogenate (membrane fractions)
T2 sequence (P41144 whole entry): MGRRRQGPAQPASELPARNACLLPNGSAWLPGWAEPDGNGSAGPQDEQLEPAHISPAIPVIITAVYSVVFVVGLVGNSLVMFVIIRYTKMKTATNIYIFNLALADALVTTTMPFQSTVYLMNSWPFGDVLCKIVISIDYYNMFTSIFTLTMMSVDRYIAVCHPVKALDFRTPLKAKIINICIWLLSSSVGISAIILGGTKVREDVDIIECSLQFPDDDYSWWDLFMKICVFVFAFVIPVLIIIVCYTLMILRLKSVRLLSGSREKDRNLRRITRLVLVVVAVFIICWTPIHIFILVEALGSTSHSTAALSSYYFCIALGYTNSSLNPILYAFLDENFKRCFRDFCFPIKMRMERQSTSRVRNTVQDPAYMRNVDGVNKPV

mice [3] = conditions: cited from earlier work
rats = conditions: cited from earlier work
[4] = test system: rats treated with reserpine or dopamine receptor antagonists (haloperidol or SCH23390); conditions: 10 mg/kg i.p.; cited from earlier work
MPTP-treated marmosets = conditions: cited from earlier work

With `C=CCN1C[C@H](C)N([C@H](c2ccc(C(=O)N(CC)CC)cc2)c2cccc(OC)c2)C[C@H]1C` [SNC80] the “Efficacy on locomotor activity (FIG. 1)” value (reserpine treated rats) was “clear efficacy”, the “Efficacy on locomotor activity (FIG. 1)” value (haloperidol-treated rats) was “clear efficacy” and the “Seizure-like convulsion incidence in mice (% of animals treated)” value (mice [1]; Intravenous 0.3 mg/kg) was 0%. The “Seizure-like convulsion incidence in mice (% of animals treated)” value (mice [1]; Intravenous 1 mg/kg) was 30%, the “Seizure-like convulsion incidence in mice (% of animals treated)” value (mice [1]; Intravenous 3 mg/kg) was 100% and the “Oral activity in Parkinson's disease rodent models” value [2] was “lack of oral activity”. The Ki (mu-opioid receptor) was 4.8 µM, the Ki (kappa-opioid receptor) was 4.1 µM and the “Seizure-like convulsions (Broom, et al., 2002)” value (mice [3]) was “produce seizure-like convulsions”. The “Seizure-like convulsions (Broom, et al., 2002)” value (rats) was “produce seizure-like convulsions”, the “Behavioral deficits (ambulatory behavior, grooming, rearing, social interaction and exploration, static investigation)” value [4] was “restored behavioral deficits” and the “Parkinsonian posture induced by MPTP treatment” value (MPTP-treated marmosets) was “not statistically reversed”. For the same compound, the “Motor activity, bradykinesia and disability scores” value (MPTP-treated marmosets; similar dose levels (10 mg/kg)) was “restored motor activity, bradykinesia and disability scores to normal”.
